Measurements as given in US20220280513A1, “ENHANCING THE ANTIVIRAL EFFICACY OF RNA VIRUS INHIBITION BY COMBINATION WITH MODULATORS OF PYRIMIDINE METABOLISM” (The Board of Trustees of the Leland Stanford Junior …, priority 2019, published 2022).

Key:
[1] = system: intracellular uridine and cytidine nucleotide levels; experiment: LC-MS/MS analysis of intracellular nucleotides in A549 cells; assay type: cell-based; details: 250 μM with 1 μM GSK983, 5 μM uridine, 6 h
Protocol: FIG. 7. LC-MS analysis of intracellular nucleotides. (A) LC-MS analysis of intracellular uridine and cytidine nucleotide levels after 6 h treatments. In all assays, the culture medium was supplemented with 5 μM uridine and 1 μM GSK983. Error bars represent ±S.D. of two replicates. (B) LC-MS detection of mono-, di- and tri-phosphates of CPU and 5-F-CPU in cells. LC-MS/MS was performed on an Agilent 1290 infinity II LC system tandem with 6370 triple quad mass spectrometer using ion pairing chromatography. LC separation was performed at 40° C. with a solvent flow rate of 0.25 mL/min on a Zorbax RRHD Extended-C18 column (2.1×150 mm, 1.8 μM). Buffer A contained 97% H2O, 3% MeOH, 5 mM tributylamine, 5.5 mM Acetic acid and 1 μM medronic acid with pH=5.0; Buffer B contains ca. 100% MeOH, 5 mM tributylamine, 5.5 mM Acetic acid and 5 μM medronic acid with pH=7.0 The initial mobile phase composition was 100% solvent A, and a constant or linear gradient was applied after sample injection with eluent B varying as follows: 0% at 2.5 min, 20% at 7.5 min, 45% at 14 min, 99% at 20 to 23 min, and 0% from 23.1 to 27.1 min. […] Samples were measured in the negative ESI mode with capillary voltage at −3.5 kV. […]
With optimized sampling and detection method in hand, pyrimidine nucleotide levels were measured in cells cultured with either 250 μM CPU, 5-F-CPU or 5′-F-CPU in combination with 1 μM GSK983 (FIG. 7A). […]

DENV-2 virus = experiment: DENV antiviral assay, DENV-Luc replication in A549 cells (FIGS. 8 and 9); assay type: cell-based, dengue serotype 2 (DENV-2) strain 16681
Protocol: DENV-Luc reporter virus generation: The design of the pDENV-Luc infectious clone derived from dengue serotype 2 (DENV-2) strain 16681 was described in detail by Marceau et al (Marceau et al., 2016). The plasmid was linearized with Xbal and in vitro transcribed into the genomic RNA of DENV-Luc virus using the T7 Megascript Kit (Ambion) in the presence of m7G(5′)ppp(5′)G RNA Cap Structure Analog (NEB). 5 μg DENV-Luc RNA was electroporated into 2×10^6 Vero cells. The transfected cells were resuspended with Dulbecco's modified Eagle's medium (DMEM; Invitrogen) with 10% FBS and 100 U/ml penicillin-streptomycin and transferred into a T-175 flask incubated at 37° C. with 5% CO2. Supernatants were collected and replenished with fresh medium every 24 h from day 17 to 24 post-transfection, pooled together, clarified by centrifugation and stored in aliquots at −80° C. The amount of infectious DENV-Luc virus in the stock was titrated using the TCID50 assay and calculated by the Spearman & Kärber algorithm as described previously (Hierholzer and Killington, 1996).
DENV antiviral assays (For FIGS. 8 and 9): A549 cells were plated overnight at 5,000 cells/well in 96-well plates in complete DMEM and incubated for 24 h at 37° C. Cells were then treated with pyrimidine de novo synthesis inhibitors, and/or salvage inhibitors, and/or R1479 in DMEM supplemented with 20 μM uridine. Four hours after drug addition, cells were infected with DENV-2 virus at a MOI=0.1. After 72 h, DENV-Luc replication was monitored by the production of Renilla luciferase, which was measured using the Renilla-Glo Luciferase Assay System (Promega) according to the specifications of the manufacturer. For the accompanying cell viability assay, A549 cells were seeded at 5,000 cells/well in 96-well plates in complete DMEM and incubated for 24 h at 37° C. Cell were then treated with pyrimidine de novo synthesis inhibitors, and/or salvage inhibitors, and/or R1479 in DMEM supplemented with 20 μM uridine. Following 48 h treatment, cell viability was monitored by ATP levels, which was measured using the CellTiter-Glo Luciferase Assay System (Promega) according to the specifications of the manufacturer.

With `O=c1ccn([C@@H]2C=C(CO)[C@@H](O)[C@H]2O)c(=O)[nH]1` [CPU, 1-((1R,4R,5S)-4,5-dihydroxy-3-(hydroxymethyl)cyclopent-2-en-1-yl)pyrimidine-2,4(1H,3H)-dione] the “depletion of UTP and CTP concentrations” value [1] was “more strongly than 5-F-CPU”, the “dengue virus replication, combination” value (DENV-2 virus; CPU (500 μM) combined with 1 μM GSK983, 20 μM uridine) was “suppressed dengue virus” and the “antiviral activity as single agent” value (DENV-2 virus; single agents, 20 μM uridine) was “neither GSK983 nor CPU were effective”.
